Tested on: MV-4-11 cells
Test: Gene expression microarray analysis (Affymetrix PrimeView) and GSEA
Type: cell-based, human
Parameters: RFU PODN (11730768_x_at) / Fold change /veh PODN (11730768_x_at) / RFU LINC00158 (11744669_a_at) / Fold change /veh LINC00158 (11744669_a_at) / RFU DUSP10 (11751237_a_at) / Fold change /veh DUSP10 (11751237_a_at) / RFU ID3 (11757404_x_at) / Fold change /veh ID3 (11757404_x_at) / RFU PLEKHG5 (11737974_s_at) / Fold change /veh PLEKHG5 (11737974_s_at) / RFU LRRC4B (11730491_at) / Fold change /veh LRRC4B (11730491_at) / RFU GIMAP4 (11747438_a_at) / Fold change /veh GIMAP4 (11747438_a_at) / RFU KRT8 (11758183_x_at) / Fold change /veh KRT8 (11758183_x_at) / RFU CNN1 (11734310_a_at) / Fold change /veh CNN1 (11734310_a_at) / RFU VPS37D (11726825_at) / Fold change /veh VPS37D (11726825_at) / RFU C10orf10 (11716522_x_at) / Fold change /veh C10orf10 (11716522_x_at) / RFU KIR2DL2 /// KIR2DL4 /// KIR2DL5A /// KIR2DL5B /// KIR2DS1 /// KIR2DS2 /// KIR2DS3 /// KIR2DS4 /// KIR3DL3 /// KIR3DL3 /// KIR3DS1 (11738374_at) / Fold change /veh KIR2DL2 /// KIR2DL4 /// KIR2DL5A /// KIR2DL5B /// KIR2DS1 /// KIR2DS2 /// KIR2DS3 /// KIR2DS4 /// KIR3DL3 /// KIR3DL3 /// KIR3DS1 (11738374_at) / RFU C1QL1 (11718748_at) / Fold change /veh C1QL1 (11718748_at) / RFU TMPRSS4 (11747572_a_at) / Fold change /veh TMPRSS4 (11747572_a_at) / RFU HAMP (11756126_x_at) / Fold change /veh HAMP (11756126_x_at) / RFU RNFT2 (11725882_a_at) / Fold change /veh RNFT2 (11725882_a_at) / RFU NR4A2 (11747474_a_at) / Fold change /veh NR4A2 (11747474_a_at) / RFU ABCC12 (11746883_a_at) / Fold change /veh ABCC12 (11746883_a_at) / RFU TMEM136 (11760407_x_at) / Fold change /veh TMEM136 (11760407_x_at) / RFU CLDN22 /// WWC2 (11732394_at) / Fold change /veh CLDN22 /// WWC2 (11732394_at) / RFU HLA-DPB1 (11760878_x_at) / Fold change /veh HLA-DPB1 (11760878_x_at) / RFU SPINT1 (11716480_a_at) / Fold change /veh SPINT1 (11716480_a_at) / RFU GAP43 (11754022_s_at) / Fold change /veh GAP43 (11754022_s_at) / RFU A4GNT (11735810_at) / Fold change /veh A4GNT (11735810_at) / RFU PRB3 (11715151_x_at) / Fold change /veh PRB3 (11715151_x_at) / RFU TUBB4B (11761932_at) / Fold change /veh TUBB4B (11761932_at) / RFU CAPN14 (11732068_a_at) / Fold change /veh CAPN14 (11732068_a_at) / RFU TMCC2 (11721928_a_at) / Fold change /veh TMCC2 (11721928_a_at) / RFU IRGQ (11745062_a_at) / Fold change /veh IRGQ (11745062_a_at) / RFU FAM174B (11720279_a_at) / Fold change /veh FAM174B (11720279_a_at) / RFU TMPRSS4 (11748680_a_at) / Fold change /veh TMPRSS4 (11748680_a_at) / RFU FAM212B (11763350_a_at) / Fold change /veh FAM212B (11763350_a_at) / RFU PLEKHG5 (11743358_a_at) / Fold change /veh PLEKHG5 (11743358_a_at) / RFU ZSCAN30 (11745921_a_at) / Fold change /veh ZSCAN30 (11745921_a_at) / RFU CMKLR1 (11741424_a_at) / Fold change /veh CMKLR1 (11741424_a_at) / RFU LOC101060620 /// MAPK8IP1 (11723275_at) / Fold change /veh LOC101060620 /// MAPK8IP1 (11723275_at) / RFU SPTSSB (11747773_x_at) / Fold change /veh SPTSSB (11747773_x_at) / RFU PRSS12 (11739890_at) / Fold change /veh PRSS12 (11739890_at) / RFU BIN1 (11741810_x_at) / Fold change /veh BIN1 (11741810_x_at) / RFU WNT11 (11732464_a_at) / Fold change /veh WNT11 (11732464_a_at) / RFU C10orf10 (11716521_a_at) / Fold change /veh C10orf10 (11716521_a_at) / RFU C5orf56 (11738089_at) / Fold change /veh C5orf56 (11738089_at) / RFU CYB561 (11721691_x_at) / Fold change /veh CYB561 (11721691_x_at) / RFU ANKRD19P (11752326_a_at) / Fold change /veh ANKRD19P (11752326_a_at) / RFU OR2T12 /// OR2T33 /// OR2T8 (11738714_s_at) / Fold change /veh OR2T12 /// OR2T33 /// OR2T8 (11738714_s_at) / RFU VCAN (11748164_a_at) / Fold change /veh VCAN (11748164_a_at) / RFU JSRP1 (11732532_at) / Fold change /veh JSRP1 (11732532_at) / RFU KRTAP10-11 (11738290_x_at) / Fold change /veh KRTAP10-11 (11738290_x_at) / RFU MYO3A (11730013_a_at) / Fold change /veh MYO3A (11730013_a_at) / RFU EBF3 (11725865_a_at) / Fold change /veh EBF3 (11725865_a_at) / RFU CAMK2N1 (11719241_x_at) / Fold change /veh CAMK2N1 (11719241_x_at) / RFU C5orf56 (11738088_a_at) / Fold change /veh C5orf56 (11738088_a_at) / RFU OLFML3 (11715873_a_at) / Fold change /veh OLFML3 (11715873_a_at) / RFU LOC100653217 /// NTM (11731650_a_at) / Fold change /veh LOC100653217 /// NTM (11731650_a_at) / RFU MAPK11 (11762145_a_at) / Fold change /veh MAPK11 (11762145_a_at) / RFU FIZ1 (11724087_x_at) / Fold change /veh FIZ1 (11724087_x_at) / RFU OASL (11726364_x_at) / Fold change /veh OASL (11726364_x_at) / RFU SOX15 (11748057_x_at) / Fold change /veh SOX15 (11748057_x_at) / RFU CD79A (11719716_a_at) / Fold change /veh CD79A (11719716_a_at) / RFU HIST1H1D (11736915_at) / Fold change /veh HIST1H1D (11736915_at) / RFU CASKIN2 (11723855_a_at) / Fold change /veh CASKIN2 (11723855_a_at) / RFU LOC730098 (11760151_x_at) / Fold change /veh LOC730098 (11760151_x_at) / RFU OR4N2 (11742367_at) / Fold change /veh OR4N2 (11742367_at) / RFU PRRT2 (11749266_a_at) / Fold change /veh PRRT2 (11749266_a_at) / RFU SNX32 (11753110_a_at) / Fold change /veh SNX32 (11753110_a_at) / RFU CDHR5 (11726645_a_at) / Fold change /veh CDHR5 (11726645_a_at) / RFU RCAN1 (11760418_a_at) / Fold change /veh RCAN1 (11760418_a_at) / RFU FAM167A (11723789_a_at) / Fold change /veh FAM167A (11723789_a_at) / RFU FAM26E (11764081_at) / Fold change /veh FAM26E (11764081_at) / RFU ISYNA1 (11749810_s_at) / Fold change /veh ISYNA1 (11749810_s_at) / RFU ACY1 (11761880_at) / Fold change /veh ACY1 (11761880_at) / RFU 11764098_at / Fold change /veh 11764098_at / RFU SAMD14 (11745864_x_at) / Fold change /veh SAMD14 (11745864_x_at) / RFU NPB (11741838_a_at) / Fold change /veh NPB (11741838_a_at) / RFU TMPRSS6 (11731388_a_at) / Fold change /veh TMPRSS6 (11731388_a_at) / RFU KRTAP10-2 (11738614_at) / Fold change /veh KRTAP10-2 (11738614_at) / RFU ARHGAP8 /// PRR5-ARHGAP8 (11727945_x_at) / Fold change /veh ARHGAP8 /// PRR5-ARHGAP8 (11727945_x_at) / RFU KRTAP5-7 /// NADSYN1 (11734609_at) / Fold change /veh KRTAP5-7 /// NADSYN1 (11734609_at) / RFU RASL12 (11751679_a_at) / Fold change /veh RASL12 (11751679_a_at) / RFU CDKN2B (11736163_a_at) / Fold change /veh CDKN2B (11736163_a_at) / RFU PRF1 (11729649_at) / Fold change /veh PRF1 (11729649_at) / RFU, ZNF638 /// ZNF638-IT1 / Fold change vs veh, ZNF638 /// ZNF638-IT1 / RFU, PANK3 / Fold change vs veh, PANK3 / RFU, SH3YL1 / Fold change vs veh, SH3YL1 / RFU, ZEB2 / Fold change vs veh, ZEB2 / RFU, NRIP1 / Fold change vs veh, NRIP1 / RFU, PTTG1IP / Fold change vs veh, PTTG1IP / RFU, CAPN2 / Fold change vs veh, CAPN2 / RFU, MED14 / Fold change vs veh, MED14 / RFU, SNORA58 / Fold change vs veh, SNORA58 / RFU, C1orf63 / Fold change vs veh, C1orf63 / RFU, LRRFIP1 / Fold change vs veh, LRRFIP1 / RFU, NDUFAF7 / Fold change vs veh, NDUFAF7 / RFU, SLC12A2 / Fold change vs veh, SLC12A2 / RFU, IBTK / Fold change vs veh, IBTK / RFU, ESF1 / Fold change vs veh, ESF1 / Fold change vs veh, TMEM50B / RFU, TAOK1 / Fold change vs veh, TAOK1 / RFU, ACBD3 / Fold change vs veh, ACBD3 / RFU, TMA16 / Fold change vs veh, TMA16 / RFU, RWDD3 / Fold change vs veh, RWDD3 / RFU, BCAT1 / Fold change vs veh, BCAT1 / RFU, EDEM3 / Fold change vs veh, EDEM3 / RFU, TMEM33 / Fold change vs veh, TMEM33 / RFU, WDR75 / Fold change vs veh, WDR75 / RFU, AHCTF1 / Fold change vs veh, AHCTF1 / RFU, TFRC / Fold change vs veh, TFRC / RFU, ZDHHC17 / Fold change vs veh, ZDHHC17 / RFU, NOM1 / Fold change vs veh, NOM1 / RFU, ARL8B / Fold change vs veh, ARL8B / RFU, ZBTB11 / Fold change vs veh, ZBTB11 / RFU, TAMM41 / Fold change vs veh, TAMM41 / RFU, KIAA1704 /// LOC100996395 / Fold change vs veh, KIAA1704 /// LOC100996395 / RFU, ING1 / Fold change vs veh, ING1 / RFU, TRMT61B / Fold change vs veh, TRMT61B / RFU, FUBP3 / Fold change vs veh, FUBP3 / RFU, TP53 / Fold change vs veh, TP53 / RFU, TNKS2 / Fold change vs veh, TNKS2 / RFU, ZFP14 / Fold change vs veh, ZFP14 / RFU, ACTR2 / Fold change vs veh, ACTR2 / RFU, PPP3R1 / Fold change vs veh, PPP3R1 / RFU, PIK3R1 / Fold change vs veh, PIK3R1 / RFU, HNRNPA1 / Fold change vs veh, HNRNPA1 / RFU, RNF170 / Fold change vs veh, RNF170 / RFU, ZNF28 / Fold change vs veh, ZNF28 / RFU, RNGTT / Fold change vs veh, RNGTT / RFU, OGT / Fold change vs veh, OGT / RFU, BRD1 / Fold change vs veh, BRD1 / RFU, MARS / Fold change vs veh, MARS / RFU, ZNF655 / Fold change vs veh, ZNF655 / RFU, FAHD1 / Fold change vs veh, FAHD1 / RFU, BDP1 / Fold change vs veh, BDP1 / RFU, LRRCC1 / Fold change vs veh, LRRCC1 / RFU, ARID1A / Fold change vs veh, ARID1A / RFU, ZNF146 / Fold change vs veh, ZNF146 / RFU, ZNF330 / Fold change vs veh, ZNF330 / RFU, GPN3 / Fold change vs veh, GPN3 / RFU, C9orf123 / Fold change vs veh, C9orf123 / RFU, N4BP2L2 / Fold change vs veh, N4BP2L2 / RFU, ARFIP1 / Fold change vs veh, ARFIP1 / RFU, FAM179B / Fold change vs veh, FAM179B / RFU, BCL10 / Fold change vs veh, BCL10 / RFU, UHRF1BP1L / Fold change vs veh, UHRF1BP1L / RFU, BET1 / Fold change vs veh, BET1 / RFU, CNOT2 / Fold change vs veh, CNOT2 / RFU, ZNF268 / Fold change vs veh, ZNF268 / Fold change vs veh, ZNF507 / RFU, DGCR2 / Fold change vs veh, DGCR2 / RFU, WDSUB1 / Fold change vs veh, WDSUB1 / Fold change vs veh, HSP90B1 /// MIR3652 / RFU, ADSS / Fold change vs veh, ADSS / RFU, GK / Fold change vs veh, GK / RFU, ZNF148 / Fold change vs veh, ZNF148 / RFU, TAF9 / Fold change vs veh, TAF9 / RFU, SLC1A5 / Fold change vs veh, SLC1A5 / RFU, SLMO2 / Fold change vs veh, SLMO2 / RFU, ABCC4 / Fold change vs veh, ABCC4 / RFU, LOC101060439 /// RAP1B / Fold change vs veh, LOC101060439 /// RAP1B / RFU, RFX7 / Fold change vs veh, RFX7 / RFU, GTPBP10 / Fold change vs veh, GTPBP10 / RFU, CNEP1R1 / Fold change vs veh, CNEP1R1 / RFU, BIVM-ERCC5 /// ERCC5 / Fold change vs veh, BIVM-ERCC5 /// ERCC5 / RFU, ILF3 / Fold change vs veh, ILF3 / RFU 11762660_at / Fold change /veh 11762660_at / RFU VCAN (11757783_s_at) / Fold change /veh VCAN (11757783_s_at) / RFU DDX43 (11728927_at) / Fold change /veh DDX43 (11728927_at) / RFU KRT8 (11758188_x_at) / Fold change /veh KRT8 (11758188_x_at) / RFU NKD1 (11759106_at) / Fold change /veh NKD1 (11759106_at) / RFU SRD5A1 (11742802_a_at) / Fold change /veh SRD5A1 (11742802_a_at) / RFU TPSAB1 /// TPSB2 (11721975_s_at) / Fold change /veh TPSAB1 /// TPSB2 (11721975_s_at) / RFU GSTM3 (11746129_a_at) / Fold change /veh GSTM3 (11746129_a_at) / RFU IL23R (11737362_x_at) / Fold change /veh IL23R (11737362_x_at) / RFU TMEM51 (11727254_a_at) / Fold change /veh TMEM51 (11727254_a_at) / RFU PIWIL2 (11732686_x_at) / Fold change /veh PIWIL2 (11732686_x_at) / RFU ORM1 (11744905_x_at) / Fold change /veh ORM1 (11744905_x_at) / RFU CCDC152 (11743942_at) / Fold change /veh CCDC152 (11743942_at) / RFU ECM1 (11717891_a_at) / Fold change /veh ECM1 (11717891_a_at) / RFU IL23R (11748794_a_at) / Fold change /veh IL23R (11748794_a_at) / RFU TNFAIP8L3 (11732012_x_at) / Fold change /veh TNFAIP8L3 (11732012_x_at) / RFU MBOAT4 (11741988_at) / Fold change /veh MBOAT4 (11741988_at) / RFU 11764193_at / Fold change /veh 11764193_at / RFU TMEM53 (11763286_at) / Fold change /veh TMEM53 (11763286_at) / RFU MAGEB2 (11727129_at) / Fold change /veh MAGEB2 (11727129_at) / RFU TMEM200A (11744735_a_at) / Fold change /veh TMEM200A (11744735_a_at) / RFU CCDC152 (11751479_a_at) / Fold change /veh CCDC152 (11751479_a_at) / RFU FAM211A (11726209_a_at) / Fold change /veh FAM211A (11726209_a_at) / RFU RGS16 (11746705_a_at) / Fold change /veh RGS16 (11746705_a_at) / RFU VCAN (11755009_s_at) / Fold change /veh VCAN (11755009_s_at) / RFU RHOB (11743442_s_at) / Fold change /veh RHOB (11743442_s_at) / RFU RGS16 (11720943_a_at) / Fold change /veh RGS16 (11720943_a_at) / RFU RGS16 (11720944_at) / Fold change /veh RGS16 (11720944_at) / RFU, VPS4B / Fold change vs veh, VPS4B / RFU, CREB1 / Fold change vs veh, CREB1 / RFU, DNAJC13 / Fold change vs veh, DNAJC13 / RFU, GNAQ / Fold change vs veh, GNAQ / RFU, CDK5R1 / Fold change vs veh, CDK5R1 / RFU, ZRANB3 / Fold change vs veh, ZRANB3 / RFU, CUL4A / Fold change vs veh, CUL4A / RFU, CCNY / Fold change vs veh, CCNY / RFU, UFL1 / Fold change vs veh, UFL1 / RFU, COG3 / Fold change vs veh, COG3 / RFU, DIAPH2 / Fold change vs veh, DIAPH2 / RFU, SKA2 / Fold change vs veh, SKA2 / RFU, AFF3 / Fold change vs veh, AFF3 / RFU, LMF1 / Fold change vs veh, LMF1 / RFU, IPO11 / Fold change vs veh, IPO11 / RFU, DFFB / Fold change vs veh, DFFB / RFU, FOXP1 / Fold change vs veh, FOXP1 / RFU, CARD8 / Fold change vs veh, CARD8 / RFU, STRN3 / Fold change vs veh, STRN3 / RFU, ADK / Fold change vs veh, ADK / RFU, RASSF2 / Fold change vs veh, RASSF2 / RFU, WIPF1 / Fold change vs veh, WIPF1 / RFU, LARP1B / Fold change vs veh, LARP1B / RFU, RASA1 / Fold change vs veh, RASA1 / RFU, RB1 / Fold change vs veh, RB1 / RFU, PPFIA1 / Fold change vs veh, PPFIA1 / RFU, MAT2A / Fold change vs veh, MAT2A / RFU, CCT5 / Fold change vs veh, CCT5 / RFU, WDR92 / Fold change vs veh, WDR92 / RFU, CUX1 / Fold change vs veh, CUX1 / RFU, TTC7A / Fold change vs veh, TTC7A / RFU, TMEM135 / Fold change vs veh, TMEM135 / RFU, DEPTOR / Fold change vs veh, DEPTOR / RFU, CPM / Fold change vs veh, CPM / RFU, DNAJB6 / Fold change vs veh, DNAJB6 / RFU, CACNA2D3 / Fold change vs veh, CACNA2D3 / RFU, DTX4 / Fold change vs veh, DTX4 / RFU, TFCP2 / Fold change vs veh, TFCP2 / RFU, GMCL1 /// GMCL1P1 / Fold change vs veh, GMCL1 /// GMCL1P1 / RFU, AEBP2 / Fold change vs veh, AEBP2 / RFU, SNHG1 /// SNORD22 /// SNORD25 /// SNORD26 /// SNORD27 /// SNORD28 /// SNORD29 /// SNORD31 / Fold change vs veh, SNHG1 /// SNORD22 /// SNORD25 /// SNORD26 /// SNORD27 /// SNORD28 /// SNORD29 /// SNORD31 / Fold change (Aza/veh), C12orf56 (ProbeSet 11735607_a_at) / Fold change (ACY-1035/veh), C12orf56 (ProbeSet 11735607_a_at) / Fold change (Aza/veh), FGFR1OP (ProbeSet 11751329_s_at) / Fold change (ACY-1035/veh), FGFR1OP (ProbeSet 11751329_s_at) / Fold change (Aza/veh), VPS36 (ProbeSet 11739960_a_at) / Fold change (ACY-1035/veh), VPS36 (ProbeSet 11739960_a_at) / RFU SYPL1 (11715823_x_at) / Fold change /veh SYPL1 (11715823_x_at) / RFU IGFBP7 (11715501_s_at) / Fold change /veh IGFBP7 (11715501_s_at) / RFU REEP3 (11722064_at) / Fold change /veh REEP3 (11722064_at) / RFU IGLL1 (11728026_x_at) / Fold change /veh IGLL1 (11728026_x_at): dose or concentration left out as unconfirmed
Settings: MV-4-11 cells, 48 hours

## Nc1ncn([C@@H]2O[C@H](CO)[C@@H](O)[C@H]2O)c(=O)n1 [azacitidine]
  RFU PRSS12 (11739890_at): 6.78 RFU

Source: paper PMC5218480 (PLoS ONE, 2017)
